Test results: patent US20230225990A1, “DIMETHYL SULFONE FOR TREATMENT OF CHRONICALLY HEAT STRESSED POULTRY” (Evonik Operations GmbH, priority 2020, published 2023)
Marks after values point to notes of the source that are not given here.

What was measured:
Format in all cases: in vivo, broiler chickens (Ross 308)
[1] = tested on: male broilers subjected to chronic cyclic heat stress; experiment: Body weight and rectal temperature of birds sampled at d-23, d-25 and d-39
Protocol: (§1) Sampling of one bird per pen (with weight close to average weight of the pen) on d-23, d-25 and on d-39 (on d-25 and d-39, sampling starts after >3 h of heat stress that day; 108 birds in total) • malondialdehyde, HSP70 (Chicken Heat Shock Protein 70, Hsp-70 ELISA Kit) Cusabio Code CSB-E11196Ch), HSP90 (Chicken Heat Shock Protein 90, HSP-90 ELISA Kit; Cusabio Code CSB-E12873C), GPx, SOD in plasma; GSH/GSSG in erythrocytes; and T3, T4 and nitric oxide in serum • Breast muscle and liver: malondialdehyde, AOX (GPx, SOD), GSH/GSSG
(§2) For physiological measurements, time of sampling (representing the number of minutes between the beginning of heat stress and the precise moment of sampling of the bird that day), if appropriate, was included in the model as a covariable if significant as well. Orthogonal contrasts were applied to test for linear and quadratic effects upon incremental levels of DMS supplementation in the diet. Means are given as estimated marginal means (least square means). Means were separated using the Tukey post-hoc test. Differences were considered significant when p<0.05 and as a trend for significance when p<0.1.
At d-23, d-25 and d39, one bird per pen (with weight close to average weight of the pen) was sampled. On d-25 and d-39, sampling started after >3 h of heat stress that day. Thus, in total 108 birds were sampled, and various endpoints were determined in several tissues. To recall, finisher period started on d-21, while the heat stress protocol was implemented from d-24 onwards. It means that d-23 was the last day prior to heat stress and d-25 the second day whereby birds were subjected to high temperatures. Body weights on d-23 and d-25 (Table 7) were naturally higher than those reported on d-21 (Table 3), but not affected by treatment. Body weights at d-39 for sampled birds are very close to body weights for d-39 shown in Table 3, which confirms that birds with weight close to average weight of the pen were selected. Again, this was not affected by supplementation with DMS. Rectal temperature of sampled birds on d-23 represents values for thermo-neutral conditions, and thus ranged between 41.1 and 41.3° C. without treatment differences (FIG. 15). However, on d-25 rectal temperatures were largely elevated and obviously affected by diet (P<0.05). […] Nonetheless, observations are in line with findings on d-38 (Table 4).

[2] = tested on: male broilers subjected to chronic cyclic heat stress; experiment: Carcass yield and portions on d-40; details: d-40 after overnight fasting
Source text: Sampling of two birds per pen (with weight close to average weight of the pen) on d-40 after overnight fasting (no heat stress that day) • Carcass yield, breast percentage, thigh percentage, drumstick percentage and abdominal fat • Carcass yield: with skin, bled, without internal organs, without feet, without head, without neck, without abdominal fat; relative to bird body weight • Breast percentage: skinless, boneless; relative to bird body weight • Thigh percentage: with skin, with bone; relative to bird body weight • Drumstick percentage: with skin, with bone; relative to bird body weight • Abdominal fat percentage: abdominal fat; relative to bird body weight • Breast meat quality • Scoring of breast myopathies (wooden breast and white striping) • Wooden breast: normal, 0; mild, 1 and severe, 2 • White striations: normal, 0; mild, 1, and severe, 2 • pH and colour, both at time 0 h and 24 h (after sampling at time 0 h, breasts are stored at 4° C. until 24 h) • Drip loss, determined for periods 0-24 h and for period 0-72 h (after sampling at time 0 h, breasts are stored at 4° C. until 72 h, and weight without exuded water at 24 h and 72 h) • Press loss, determined at 24 h (after sampling at time 0 h, breasts are stored at 4° C. until 24 h, prior to determine press loss) • Oxidative stability (TBARS after simulated retail display)

[3] = tested on: male broilers subjected to chronic cyclic heat stress; experiment: Parameters in liver of birds sampled at d-23, d-25 and d-39
Protocol: as §1, §2

[4] = 0.2% DMS in diet (T3), sampled birds d-25

## CS(C)(=O)=O [DMS, dimethyl sulfone]
[1]; 0.1% DMS in diet (T2), sampled birds d-23
  Body weight: 1361 g
[1]; 0.1% DMS in diet (T2), sampled birds d-23 (prior to heat stress)
  Rectal temperature: 41.3 °C
[1]; 0.1% DMS in diet (T2), sampled birds d-25
  Body weight: 1544 g
[1]; 0.1% DMS in diet (T2), sampled birds d-25, during heat stress
  Rectal temperature: 42.5^b ° C.
[1]; 0.1% DMS in diet (T2), sampled birds d-39
  Body weight: 3097 g
[1]; 0.1% DMS in diet (T2), sampled birds d-39, during heat stress
  Rectal temperature: 42.6 °C
[1]; 0.2% DMS in diet (T3), sampled birds d-23
  Body weight: 1352 g
[1]; 0.2% DMS in diet (T3), sampled birds d-23 (prior to heat stress)
  Rectal temperature: 41.1 °C
[1]; [4]
  Body weight: 1536 g
  Rectal temperature lower than control: 0.5 °C
[1]; 0.2% DMS in diet (T3), sampled birds d-25, during heat stress
  Rectal temperature: 42.3^b ° C.
[1]; 0.2% DMS in diet (T3), sampled birds d-39
  Body weight: 3068 g
[1]; 0.2% DMS in diet (T3), sampled birds d-39, during heat stress
  Rectal temperature: 42.3 °C
[2]; 0.1% DMS in diet (T2)
  Body weight: 3010 g
[2]; 0.2% DMS in diet (T3)
  Body weight: 2980 g
[3]; 0.1% DMS in diet (T2), d-23
  GSSG/GSH: 0.016
  Glutathione (GSH): 4.69 µmol/g
  Glutathione peroxidase: 17.0 U/g
  Malondialdehyde: 43.9 nmol/g
  Oxidized glutathione (GSSG): 0.077 µmol/g
  Super oxide dismutase: 332 U/g
[3]; 0.1% DMS in diet (T2), d-25
  GSSG/GSH: 0.017
  Glutathione (GSH): 4.26 µmol/g
  Glutathione peroxidase: 17.8 U/g
  Malondialdehyde: 48.6 nmol/g
  Oxidized glutathione (GSSG): 0.070 µmol/g
  Super oxide dismutase: 292 U/g
[3]; 0.1% DMS in diet (T2), d-39
  GSSG/GSH: 0.027
  Glutathione (GSH): 3.74 µmol/g
  Glutathione peroxidase: 17.5 U/g
  Malondialdehyde: 46.4 nmol/g
  Oxidized glutathione (GSSG): 0.093 µmol/g
  Super oxide dismutase: 356 U/g
[3]; 0.2% DMS in diet (T3), d-23
  GSSG/GSH: 0.015
  Glutathione (GSH): 5.04 µmol/g
  Glutathione peroxidase: 16.9 U/g
  Malondialdehyde: 44.6 nmol/g
  Oxidized glutathione (GSSG): 0.076 µmol/g
  Super oxide dismutase: 317 U/g
[3]; 0.2% DMS in diet (T3), d-25
  GSSG/GSH: 0.017
  Glutathione (GSH): 4.14 µmol/g
  Glutathione peroxidase: 17.9 U/g
  Malondialdehyde: 49.1 nmol/g
  Oxidized glutathione (GSSG): 0.069 µmol/g
  Super oxide dismutase: 289 U/g
[3]; 0.2% DMS in diet (T3), d-39
  GSSG/GSH: 0.025
  Glutathione (GSH): 3.94 µmol/g
  Glutathione peroxidase: 18.6 U/g
  Malondialdehyde: 48 nmol/g
  Oxidized glutathione (GSSG): 0.097 µmol/g
  Super oxide dismutase: 346 U/g
